Usually IC50 stands for the concentration that gives 50% inhibition.

The results in this text go back to ChEMBL document CHEMBL1932965, “Synthesis and SAR of inhibitors of protein kinase CK2: novel tricyclic quinoline analogs” (Bioorg Med Chem Lett, 2012).

Sequence of Casein kinase II alpha/beta (P68400 whole entry, looked up): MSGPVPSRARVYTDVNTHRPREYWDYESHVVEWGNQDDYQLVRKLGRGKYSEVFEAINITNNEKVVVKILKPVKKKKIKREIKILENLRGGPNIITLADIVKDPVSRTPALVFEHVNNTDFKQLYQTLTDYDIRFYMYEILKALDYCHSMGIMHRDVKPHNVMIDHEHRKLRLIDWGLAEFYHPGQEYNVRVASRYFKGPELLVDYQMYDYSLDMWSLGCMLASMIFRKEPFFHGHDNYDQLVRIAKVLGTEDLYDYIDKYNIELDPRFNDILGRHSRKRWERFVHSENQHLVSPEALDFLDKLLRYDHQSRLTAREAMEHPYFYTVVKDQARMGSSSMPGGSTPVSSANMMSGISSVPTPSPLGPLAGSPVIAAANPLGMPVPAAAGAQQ

This assay addresses Casein kinase II alpha/beta (Homo sapiens, UniProt P68400). Kind of assay: Inhibition of human recombinant CK2alpha/CK2beta using RRRDDDSDDD peptide as substrate by radiometric assay. The format is protein-complex assay.
As to `O=C(O)c1ccc2c(c1)nc(-c1ccccc1)c1ccncc12`, the IC50 is 1.1 nM.
Under `O=C(O)c1ccc2c(c1)nc(-c1cccnc1)c1ccncc12` stands more than 2500 nM.
Take `O=C(O)c1ccc2c(c1)nc(-c1ccncc1)c1ccncc12`: the half-inhibitory concentration (IC50) was 35 nM.
For `O=C(O)c1ccc2c(c1)nc(-c1cccc(Cl)c1)c1ccncc12` the value was 2.9 nM; for `O=C(O)c1ccc2c(c1)nc(-c1cccc(F)c1)c1ccncc12`, 1.3 nM; for `Nc1cccc(-c2nc3cc(C(=O)O)ccc3c3cnccc23)c1`, 2.7 nM.
Under `O=C(O)c1ccc2c(c1)nc(-c1cccc(O)c1)c1ccncc12` stands 1 nM; under `COc1cccc(-c2nc3cc(C(=O)O)ccc3c3cnccc23)c1`, 34 nM.
For `O=C(O)c1ccc2c(c1)nc(-c1cccc(OC(F)(F)F)c1)c1ccncc12` the value was 5.7 nM; for `CS(=O)(=O)c1cccc(-c2nc3cc(C(=O)O)ccc3c3cnccc23)c1`, 13 nM.
Take `NS(=O)(=O)c1cccc(-c2nc3cc(C(=O)O)ccc3c3cnccc23)c1`: the IC50 turned out to be 11 nM.
As to `NC(=O)c1cccc(-c2nc3cc(C(=O)O)ccc3c3cnccc23)c1`, the half-inhibitory concentration (IC50) came out at 3.5 nM.
Under `O=C(O)c1ccc2c(c1)nc(-c1ccc(Cl)cc1)c1ccncc12` stands 0.5 nM.
For `O=C(O)c1ccc2c(c1)nc(-c1ccc(F)cc1)c1ccncc12` the value was 1.2 nM; for `Cc1ccccc1-c1nc2cc(C(=O)O)ccc2c2cnccc12`, 20 nM.
For `O=C(O)c1ccc2c(c1)nc(-c1ccccc1OC(F)(F)F)c1ccncc12`, the half-maximal inhibitory concentration (IC50) turned out to be 39 nM.
Under `O=C(O)c1ccc2c(c1)nc(-c1ccccc1F)c1ccncc12` stands 15 nM.
Under `O=C(O)c1ccc2c(c1)nc(-c1ccc(Cl)cc1)c1ncncc12` stands 12 nM; under `O=C(O)c1ccc2c(c1)nc(-c1cccc(O)c1)c1ncncc12`, 3.5 nM; under `NC(=O)c1cccc(-c2nc3cc(C(=O)O)ccc3c3cncnc23)c1`, 17 nM.
On to `O=C(O)c1ccc2c(c1)nc(-c1ccccc1)c1nc(NC3CC3)ncc12`, for which the half-inhibitory concentration (IC50) came out at 0.6 nM.
As to `CCNc1ncc2c(n1)c(-c1ccc(Cl)cc1)nc1cc(C(=O)O)ccc12`, the IC50 is 0.5 nM.
For `O=C(O)c1ccc2c(c1)nc(-c1ccsc1)c1ccncc12` the value was 0.5 nM; for `Cc1cscc1-c1nc2cc(C(=O)O)ccc2c2cnccc12`, 4.2 nM.
For `O=C(O)c1ccc2c(c1)nc(-c1ccc(Cl)s1)c1ccncc12`, the IC50 was 0.4 nM.
Under `COC(=O)c1ccc2c(c1)nc(-c1ccc(Cl)cc1)c1ccncc12` stands 395 nM; under `NC(=O)c1ccc2c(c1)nc(-c1ccc(Cl)cc1)c1ccncc12`, 30 nM.
`CONC(=O)c1ccc2c(c1)nc(-c1ccc(Cl)cc1)c1ccncc12`: the IC50 is 444 nM.
Under `N#Cc1ccc2c(c1)nc(-c1ccc(Cl)cc1)c1ccncc12` stands more than 2500 nM.
Regarding `Clc1ccc(-c2nc3cc(-c4nnn[nH]4)ccc3c3cnccc23)cc1`, the IC50 is 20 nM.
For `O=C(O)c1ccc2nc(-c3ccc(Cl)cc3)c3ccncc3c2c1` the value was 164 nM; for `O=C(O)c1cccc2c1nc(-c1ccc(Cl)cc1)c1ccncc12`, 2030 nM; for `CN(c1cccc(Cl)c1)c1nc2cc(C(=O)O)ccc2c2cnccc12`, 8.9 nM.
For `O=C(O)c1ccc2c(c1)nc(Oc1cccc(Cl)c1)c1ccncc12` the value was 3.7 nM; for `O=C(O)c1ccc2c(c1)nc(Sc1cccc(Cl)c1)c1ccncc12`, 1 nM; for `O=C(O)c1ccc2c(c1)nc(Cc1cccc(Cl)c1)c1ccncc12`, 2.1 nM.
